According to patent US10259815B2, “Gabaergic ligands and their uses” (UWM Research Foundation, Inc., priority 2015, dated 2019):
pEC50: −log10 of the molar value.

How the values were obtained:
[1] = target: T1, α1, β3, γ2 GABA A receptor (Homo sapiens, UniProt P14867+P18507); experiment: FLIPR functional assay, α1 GABAA receptor subtype in HEK-293 cells; assay type: cell-based
T1 construct: host or cells: HEK-293, stably transfected
Source text: (§1) The FLIPR functional assay is used to determine the EC50 at the α1 and α3 GABAA receptor subtypes. A high EC50 for the α1 subtype would indicate a low chance of adverse effects, including sedation, ataxia, and muscle relaxation. A low α3 EC50 would indicate potential effectiveness as an anxiolytic, antihyperalgesic, and likely an anticonvulsant. See, for example, Liu et al. (Assay. Drug. Dev. Technol. 2008, 6, 781-6) and Joesch et al. (J. Biomol. Screen. 2008, 13, 218-28).
(§2) Compounds tested were synthesized internally and solubilized in DMSO at a 10 mM concentration. GABA was purchase from Sigma (#A2129) and prepared at 100 mM in water.
(§3) HEK-293 cells were stably transfected with the α1, β3, γ2 GABA A receptor subunits (GenBank accession numbers NM_000806.3, NM_000814.5, and NM_198904.1, respectively) or α3, β3, γ2 (NM_000808 for α3) where obtained from ChanTest Co. (Catalog # CT6216 and CT6218, respectively).
(§4) Cells were cultivated in Dulbeco's Modified Eagle's Medium (DMEM, Sigma D5796) supplemented with 10% Fetal Bovine Serum (FBS, Gibco 16000), 0.5 mg/mL Geneticin (Gibco), 0.04 mg/mL Hygromycin B (Gibco), 0.1 mg/mL Zeocin (Gibco) and 20 mM HEPES (Sigma). Cells were grown at 37° C. in a humidified atmosphere of 5% CO2. In the experiments described here frozen cells were used. For this purpose, cells were gown and maintained under confluency during 2-3 weeks and then frozen down at different cell densities using Recovery™ Cell Culture Freezing Medium (Gibco).
(§5) 18 hours prior to the experiment, cells were quickly thawed at 37° C. and seeded on Poly-D-Lys 384 plates (Corning 356663) at a density of 25,000 cells/well and in 25 μL of complete cell medium as described above.
(§6) Membrane potential changes induced by the flux of ions through the receptor were measured as relative fluorescence units (RFU) using the Fluorometric Imaging Plate Reader (FLIPR Tetra®, Molecular Devices) and the FLIPR Membrane Potential Blue Assay kit (Molecular Devices). Prior to the addition of the compounds the medium was removed and cells were loaded with 20 μL of dye prepared in assay buffer composed of Hank's Balanced Salt Solution (HBSS with Ca^+2 and Mg^+2; Gibco 14025) with 20 mM Hepes. After 1 hour of incubation at room temperature (RT), the plate was placed into the FLIPR instrument and experiments were run adding first 10 μL from the 1st addition plate (compound plate) and after a 3 minutes incubation adding 20 μL of the 2nd addition or agonist plate. The response to this last GABA addition was monitored for another 3 minutes. […]
(§7) Data Analysis. The difference between the maximum and the minimum (Max-Min) fluorescence reached during the first addition or read interval and the second read interval were used for data analysis (agonist and potentiation, respectively). […]

[2] = target: T2, α3, β3, γ2 GABA A receptor (Homo sapiens, UniProt P18507+P34903); experiment: FLIPR functional assay, α3 GABAA receptor subtype in HEK-293 cells; assay type: cell-based; conditions: α3 Binding EC50, FLIPR membrane potential, potentiation of GABA EC20
T2 construct: host or cells: HEK-293, stably transfected
T2 sequence (P34903 29-492): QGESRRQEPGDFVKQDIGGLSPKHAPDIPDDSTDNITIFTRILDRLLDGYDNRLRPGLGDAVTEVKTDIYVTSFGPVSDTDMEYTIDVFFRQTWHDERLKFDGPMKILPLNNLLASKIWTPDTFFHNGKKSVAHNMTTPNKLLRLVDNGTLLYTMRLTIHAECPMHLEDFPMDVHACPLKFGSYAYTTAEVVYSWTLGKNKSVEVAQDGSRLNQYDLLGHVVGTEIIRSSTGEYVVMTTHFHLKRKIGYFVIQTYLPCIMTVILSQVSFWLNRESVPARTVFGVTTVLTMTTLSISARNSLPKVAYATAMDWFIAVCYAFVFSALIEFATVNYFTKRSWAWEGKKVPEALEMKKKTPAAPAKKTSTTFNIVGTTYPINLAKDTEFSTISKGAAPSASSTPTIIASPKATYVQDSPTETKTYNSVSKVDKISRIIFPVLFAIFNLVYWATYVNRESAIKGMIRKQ
T2 sequence (P28472 26-473 partner): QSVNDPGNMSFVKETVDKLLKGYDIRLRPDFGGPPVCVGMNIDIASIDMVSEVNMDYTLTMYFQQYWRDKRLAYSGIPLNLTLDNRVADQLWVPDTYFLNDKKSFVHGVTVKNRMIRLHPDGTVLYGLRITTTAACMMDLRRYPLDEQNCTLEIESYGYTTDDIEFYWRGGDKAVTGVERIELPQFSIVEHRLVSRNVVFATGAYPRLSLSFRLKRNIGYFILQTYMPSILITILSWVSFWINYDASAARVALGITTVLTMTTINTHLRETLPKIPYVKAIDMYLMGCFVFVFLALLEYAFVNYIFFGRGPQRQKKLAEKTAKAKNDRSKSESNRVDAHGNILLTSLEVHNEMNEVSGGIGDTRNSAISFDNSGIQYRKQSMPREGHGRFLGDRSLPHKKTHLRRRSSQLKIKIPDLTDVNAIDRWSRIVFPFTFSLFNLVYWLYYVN
T2 sequence (P18507 40-475): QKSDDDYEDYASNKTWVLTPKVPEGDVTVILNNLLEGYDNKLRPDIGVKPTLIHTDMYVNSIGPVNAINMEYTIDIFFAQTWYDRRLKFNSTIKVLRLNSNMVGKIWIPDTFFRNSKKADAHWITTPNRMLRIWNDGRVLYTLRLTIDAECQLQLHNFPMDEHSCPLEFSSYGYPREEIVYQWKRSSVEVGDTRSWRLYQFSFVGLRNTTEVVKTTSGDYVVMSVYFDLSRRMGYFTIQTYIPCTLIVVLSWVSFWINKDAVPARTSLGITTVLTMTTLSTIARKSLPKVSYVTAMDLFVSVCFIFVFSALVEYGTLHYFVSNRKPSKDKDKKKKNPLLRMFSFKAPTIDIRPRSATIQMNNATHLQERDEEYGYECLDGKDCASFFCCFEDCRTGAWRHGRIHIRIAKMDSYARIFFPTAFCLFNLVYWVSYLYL
Source text: as §1, §2, §3, §4, §5, §6, §7

[3] = Liver microsomal stability, human; assay type: in vitro ADME; conditions: 37° C., 4 μM compound, 30 minutes
Method: (§8) In vitro metabolism studies were done in mouse, rat, human, and dogs cells (TABLE 2).
(§9) In vitro liver microsomal studies were completed to measure the stability of the compounds against degradation in various species' liver microsomes.
(§10) Compound was incubated in hepatic microsomes over a 30-minute incubation period at 37° C. Incubations both with and without NADPH (2 mM) were performed in a 96-well plate format. The reaction was initiated with the addition of substrate and was terminated by protein precipitation. All incubations were performed using a final substrate concentration of 4 μM in 50 mM sodium phosphate buffer, pH 7.4. The final organic solvent content was 0.5% acetonitrile and 0.02% DMSO. The amount of enzyme present was fixed at 1.11 mg/mL protein irrespective of the species of microsomes used. Samples were analyzed by LC/MS-MS to determine the percent loss in the NAPDH incubations relative to the NADPH free incubations.

[4] = Liver microsomal stability, dog; assay type: in vitro ADME; conditions: 37° C., 4 μM compound, 30 minutes
Method: as §8, §9, §10

[5] = Liver microsomal stability, mouse; assay type: in vitro ADME; conditions: 37° C., 4 μM compound, 30 minutes
Method: as §8, §9, §10

[6] = Liver microsomal stability, rat; assay type: in vitro ADME; conditions: 37° C., 4 μM compound, 30 minutes
Method: as §8, §9, §10

[7] = test system: Male NIH Swiss mice; experiment: Rotorod assay (ataxia); assay type: in vivo; conditions: 30 mg/kg i.p., 30 minutes prior, 4 r.p.m., two minutes
Method: Male NIH Swiss mice (n=10) were dosed i.p. with vehicle (1% carboxymethyl cellulose) or one of the test compounds (10 or 30 mg/kg) 30 minutes prior to being tested on the rotorod. Mice were placed on a rod for two minutes at 4 revolutions per minute. […] Mice that fell twice failed the testing.
The rotorod assay (FIG. 5) is used to determine the ataxic effects, generally stemming from the α1 subtype, that compounds have in test subjects. Mice are trained to run on a slow, rotating cylinder for two minutes, and failure to stay on the rod may be due to ataxia. […] Each set of compounds were tested against a vehicle.
Male NIH Swiss mice (n=10/group) were trained on a rotorod (Ugo Basile 7650) at 4 r.p.m. for two minutes per training session prior to testing. On test day, mice were dosed i.p. with either vehicle (1% carboxymethyl cellulose) or one of the test compounds (10 or 30 mg/kg) 30 minutes prior to testing.

[8] = test system: Sprague Dawley male rats; experiment: Mechanical hyperalgesia (von Frey) in CFA-induced inflammatory pain rat model; assay type: in vivo
Method: Raw data (paw withdrawal threshold, expressed in g of von Frey filament) was converted to a maximal possible effect value according the following equation: % MPE=[(test threshold(g)−control threshold(g)/(pre-CFA threshold−control threshold)]×100.
Complete Freund's adjuvant (CFA) contains Mycobacterium butyricum, inducing inflammation and an increase in paw thickness. 0.1 mL of CFA was injected in the right hind paw of Sprague Dawley male rats under isoflurane anaesthesia.
Mechanical hyperalgesia. Mechanical hyperalgesia was measured 3 days after CFA treatment. Rats (n=6) were placed in elevated boxes with a mesh floor. Von Frey filaments (expressed in g) were applied perpendicularly to the hindpaws, starting with the lowest filament (1.4 g) then increased until hindpaw withdrawal was observed. After each measurement, rats received the next dose of drug (every 20 min) until the maximum threshold (26 g) was observed. For the antagonist study, rats were pretreated with the benzodiazepine site antagonist flumazenil (10 min) and then received the next dose of drug (every 20 min) until the pre-CFA threshold was observed.
Drugs. The following drugs were used: HZ166, KRM-II-18B, and KRM-II-81, and were dissolved in a mixture containing 20% Dimethyl sulfoxide (DMSO), 10% Emulphor-620 (Rhodia Inc.), and 70% of 0.9% saline. Flumazenil (purchased from Cayman Chemical Company, MI) was dissolved in a mixture containing 10% ethanol, 40% propylene glycol, and 50% sterile water. Midazolam (Akorn, Inc.) was dissolved in 0.9% saline. Doses were expressed as the weight of the drug in milligrams per kilogram of body weight and drugs were administered intraperitoneally.

[9] = test system: Male Sprague-Dawley rats; experiment: von Frey filament test in spinal nerve ligated (SNL) rats; assay type: in vivo
Method: FIG. 11 is a graph of time versus withdrawal threshold for KRM-II-81, Gabapentin, and vehicle, showing the effect of KRM-II-81 on antihyperalgesia in the von Frey filament assay. Male Sprague-Dawley rats (n=5) were dosed i.p. either vehicle, KRM-II-81 (30 mg/kg), or gabapentin (50 mg/kg) and tested in the von Frey filament assay after undergoing SNL 90 days prior. Results were analyzed using ANOVA (Dunnett's test: *P<0.05).
The von Frey filament test is used to test for antihyperalgesia, or an increased sensitivity to pain. […] The von Frey filaments are used to apply pressure to the forelimbs of test subjects at set amounts. When pressure becomes too great, the forelimb is withdrawn and the amount of force applied recorded. The spinal nerve ligation induced hyperalgesia, reducing the amount of force a limb can take before being withdrawn.
Test compounds were given to test the effectiveness of combating the hyperalgesic effect of SNL. Male Sprague-Dawley rats went through SNL at least 90 days prior to the von Frey testing. Rats were first tested without given an injection to determine a baseline. Following baseline establishment, rats (n=5 for all groups) were dosed i.p. with vehicle (1% carboxymethyl cellulose), KRM-II-81 (30 mg/kg), or gabapentin (50 mg/kg). Subjects were then tested every hour for four hours to determine the antihyperalgesic effect of the test compounds. For testing, pressure using von Frey filaments was applied to the forelimb of the rat. Pressure was increased until the limb was withdrawn, and the amount of pressure was recorded.

T1 sequence (P14867 28-456): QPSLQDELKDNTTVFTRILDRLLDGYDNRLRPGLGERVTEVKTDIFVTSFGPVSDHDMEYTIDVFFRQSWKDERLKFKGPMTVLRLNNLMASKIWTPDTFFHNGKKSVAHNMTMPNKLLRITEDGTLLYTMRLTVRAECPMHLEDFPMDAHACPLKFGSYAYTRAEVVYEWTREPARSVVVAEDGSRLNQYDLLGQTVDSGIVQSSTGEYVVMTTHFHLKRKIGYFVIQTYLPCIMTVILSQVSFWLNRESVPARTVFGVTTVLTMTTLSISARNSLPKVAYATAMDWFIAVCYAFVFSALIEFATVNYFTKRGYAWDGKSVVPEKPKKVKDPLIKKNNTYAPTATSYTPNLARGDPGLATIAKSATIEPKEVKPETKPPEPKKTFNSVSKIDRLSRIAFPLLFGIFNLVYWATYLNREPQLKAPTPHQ
T1 sequence (P28472 26-473 partner): as the sequence (P28472 26-473 partner) above
T1 sequence (P18507 40-475): as the sequence (P18507 40-475) above

Work on `Brc1ccc2c(c1)C(c1ccccc1)=NCc1c(-c3cnco3)ncn1-2` yielded a melting point of 225 to 227 °C.
In the case of `Cc1ncoc1-c1ncn2c1CN=C(c1ccccn1)c1cc(Br)ccc1-2`, the melting point was 228 to 230 °C.
For `Cc1ncoc1-c1ncn2c1CN=C(c1ccccc1)c1cc(Br)ccc1-2`, the melting point was 236 to 238 °C.
`Cc1ncoc1-c1ncn2c1CN=C(c1ccccc1F)c1cc(Br)ccc1-2` showed a melting point of 138 to 140 °C.
`C[Si](C)(C)C#Cc1ccc2c(c1)C(c1ccccn1)=NCc1c(-c3cnco3)ncn1-2` showed a melting point of 208 to 210 °C.
Work on `Cc1ncoc1-c1ncn2c1CN=C(c1ccccc1)c1cc(C#C[Si](C)(C)C)ccc1-2` yielded a melting point of 130 to 132 °C.
With `Cc1ncoc1-c1ncn2c1CN=C(c1ccccc1F)c1cc(C#C[Si](C)(C)C)ccc1-2` the melting point was 209 to 211 °C.
`C#Cc1ccc2c(c1)C(c1ccccn1)=NCc1c(-c3ocnc3C)ncn1-2` showed a melting point of 209 to 211 °C.
`C#Cc1ccc2c(c1)C(c1ccccc1)=NCc1c(-c3ocnc3C)ncn1-2` showed a melting point of 228 to 230 °C.
With `C#Cc1ccc2c(c1)C(c1ccccc1F)=NCc1c(-c3ocnc3C)ncn1-2` the melting point was 145 to 147 °C.
With `C#Cc1ccc2c(c1)C(c1ccccc1)=NCc1c(-c3cnco3)ncn1-2` [KRM-II-82, 5-(8-Ethynyl-6-phenyl-4H-benzo[f]imidazo[1,5-a][1,4]diazepin-3-yl)oxazole] the pEC50 [1] was < 4.70, the pEC50 [2] was 7.49 and the “Human Liver microsome stability (reported in % remaining)” value [3] was 74 % remaining. The “Dog Liver microsome stability (reported in % remaining)” value [4] was 86 % remaining, the “Mouse Liver microsome stability (reported in % remaining)” value [5] was 73 % remaining and the “Rat Liver microsome stability (reported in % remaining)” value [6] was 72 % remaining. The “rotorod performance at 30 mg/kg” value [7] was “failed multiple times”.
For `Fc1ccccc1C1=NCc2c(-c3cnco3)ncn2-c2ccc(Br)cc21` [SH-I-085, 5-(8-Bromo-6-(2-fluorophenyl)-4H-benzo[f]imidazo[1,5-a][1,4]diazepin-3-yl)oxazole], the pEC50 [1] was < 4.70, the pEC50 [2] was 7.60 and the “Human Liver microsome stability (reported in % remaining)” value [3] was 62 % remaining. For the same compound, the “Dog Liver microsome stability (reported in % remaining)” value [4] was 77 % remaining, the “Mouse Liver microsome stability (reported in % remaining)” value [5] was 67 % remaining and the “Rat Liver microsome stability (reported in % remaining)” value [6] was 61 % remaining. The melting point was 190 to 192 °C.
With `CCOC(=O)c1ncn2c1CN(C)C(=O)c1cc(F)ccc1-2` [flumazenil, reference compound] the “shift of PAM dose-effect curves by antagonist pretreatment” value ([8]; flumazenil pretreatment 10 min) was “shifted the dose-effect curves of PAMs rightward”.
For `NCC1(CC(=O)O)CCCCC1` [gabapentin, reference compound], the “antihyperalgesic activity, von Frey after SNL” value ([9]; KRM-II-81 30 mg/kg, gabapentin 50 mg/kg i.p.) was “active as antihyperalgesics” and the “pain threshold (force before removing paw)” value ([9]; from 1-2 hours, vehicle ˜5 g) was ~12 g.
In the case of `Cc1ncc2n1-c1ccc(Cl)cc1C(c1ccccc1F)=NC2` [midazolam, reference compound], the “mechanical hyperalgesia in CFA-induced inflammatory pain” value ([8]; cumulative i.p. dosing, 3 days after CFA) was “dose-dependently attenuated mechanical hyperalgesia”.
